# Measurements: ChEMBL document CHEMBL1138676, “Liver-selective glucocorticoid antagonists: a novel treatment for type 2 diabetes” (J Med Chem, 2004)
# Experiments:
# [1] = molecular target: T1, Thyroid hormone receptor alpha (Homo sapiens, UniProt P10827); assay: Inhibition of human Thyroid hormone receptor alpha
# T1 sequence (P10827 whole entry): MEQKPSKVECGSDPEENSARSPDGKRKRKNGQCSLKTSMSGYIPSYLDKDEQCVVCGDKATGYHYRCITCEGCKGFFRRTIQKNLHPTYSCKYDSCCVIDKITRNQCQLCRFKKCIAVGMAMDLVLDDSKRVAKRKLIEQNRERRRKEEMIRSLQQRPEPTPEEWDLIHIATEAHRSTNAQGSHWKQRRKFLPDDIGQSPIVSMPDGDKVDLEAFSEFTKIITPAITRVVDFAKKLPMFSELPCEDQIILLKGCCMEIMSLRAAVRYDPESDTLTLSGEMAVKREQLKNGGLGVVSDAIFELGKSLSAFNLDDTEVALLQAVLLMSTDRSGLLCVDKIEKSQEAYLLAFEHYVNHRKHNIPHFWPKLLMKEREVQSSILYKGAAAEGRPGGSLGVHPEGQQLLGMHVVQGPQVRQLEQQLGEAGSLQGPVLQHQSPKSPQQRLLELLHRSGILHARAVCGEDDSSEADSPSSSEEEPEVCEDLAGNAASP
# Glucocorticoid receptor = molecular target: T2, Glucocorticoid receptor (Homo sapiens, UniProt P04150); assay: Inhibition of human glucocorticoid receptor
# T2 sequence (P04150 whole entry): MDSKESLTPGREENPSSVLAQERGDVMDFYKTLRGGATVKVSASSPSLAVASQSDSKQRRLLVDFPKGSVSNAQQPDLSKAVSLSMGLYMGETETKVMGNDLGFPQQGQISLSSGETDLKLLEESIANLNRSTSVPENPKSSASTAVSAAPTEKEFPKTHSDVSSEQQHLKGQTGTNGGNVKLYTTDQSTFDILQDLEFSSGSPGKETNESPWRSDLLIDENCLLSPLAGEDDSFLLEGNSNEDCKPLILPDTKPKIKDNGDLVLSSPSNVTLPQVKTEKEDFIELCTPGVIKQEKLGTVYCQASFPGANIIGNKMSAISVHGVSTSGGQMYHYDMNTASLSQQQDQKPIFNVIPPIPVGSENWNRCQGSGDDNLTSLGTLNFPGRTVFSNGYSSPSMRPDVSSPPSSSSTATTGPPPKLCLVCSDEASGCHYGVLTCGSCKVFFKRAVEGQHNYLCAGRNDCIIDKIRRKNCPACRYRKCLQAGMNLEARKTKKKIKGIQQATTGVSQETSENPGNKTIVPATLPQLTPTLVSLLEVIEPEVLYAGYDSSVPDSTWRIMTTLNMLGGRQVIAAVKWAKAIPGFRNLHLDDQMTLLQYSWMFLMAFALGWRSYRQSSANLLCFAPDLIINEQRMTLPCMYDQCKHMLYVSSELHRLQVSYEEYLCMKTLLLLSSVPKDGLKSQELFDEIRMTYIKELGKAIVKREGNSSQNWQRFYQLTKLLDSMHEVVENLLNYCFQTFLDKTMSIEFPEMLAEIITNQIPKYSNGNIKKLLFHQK
# Estrogen receptor beta = Estrogen receptor beta (Homo sapiens, UniProt Q92731); assay: Inhibition of human Estrogen receptor beta
# Estrogen receptor = molecular target: T3, Estrogen receptor (Homo sapiens, UniProt P03372); assay: Inhibition of human Estrogen receptor alpha
# T3 sequence (P03372 whole entry): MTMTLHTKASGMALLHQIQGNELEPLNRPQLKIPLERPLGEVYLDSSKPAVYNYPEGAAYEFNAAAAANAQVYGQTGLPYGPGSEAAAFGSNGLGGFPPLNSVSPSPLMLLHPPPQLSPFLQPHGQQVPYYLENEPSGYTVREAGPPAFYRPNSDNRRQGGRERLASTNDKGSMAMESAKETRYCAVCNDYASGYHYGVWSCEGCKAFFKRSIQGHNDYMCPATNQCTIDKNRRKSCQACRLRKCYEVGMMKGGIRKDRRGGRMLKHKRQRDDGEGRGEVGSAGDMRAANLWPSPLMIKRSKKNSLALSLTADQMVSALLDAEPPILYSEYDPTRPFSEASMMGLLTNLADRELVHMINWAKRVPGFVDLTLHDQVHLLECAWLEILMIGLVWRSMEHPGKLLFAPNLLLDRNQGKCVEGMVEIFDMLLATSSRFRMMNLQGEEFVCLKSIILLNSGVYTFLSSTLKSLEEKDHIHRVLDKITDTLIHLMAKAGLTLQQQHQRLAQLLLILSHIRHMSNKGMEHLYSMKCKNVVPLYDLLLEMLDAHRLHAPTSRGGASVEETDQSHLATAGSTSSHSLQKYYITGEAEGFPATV
# [2] = molecular target: T4, Mineralocorticoid receptor (Homo sapiens, UniProt P08235)
# T4 sequence (P08235 whole entry): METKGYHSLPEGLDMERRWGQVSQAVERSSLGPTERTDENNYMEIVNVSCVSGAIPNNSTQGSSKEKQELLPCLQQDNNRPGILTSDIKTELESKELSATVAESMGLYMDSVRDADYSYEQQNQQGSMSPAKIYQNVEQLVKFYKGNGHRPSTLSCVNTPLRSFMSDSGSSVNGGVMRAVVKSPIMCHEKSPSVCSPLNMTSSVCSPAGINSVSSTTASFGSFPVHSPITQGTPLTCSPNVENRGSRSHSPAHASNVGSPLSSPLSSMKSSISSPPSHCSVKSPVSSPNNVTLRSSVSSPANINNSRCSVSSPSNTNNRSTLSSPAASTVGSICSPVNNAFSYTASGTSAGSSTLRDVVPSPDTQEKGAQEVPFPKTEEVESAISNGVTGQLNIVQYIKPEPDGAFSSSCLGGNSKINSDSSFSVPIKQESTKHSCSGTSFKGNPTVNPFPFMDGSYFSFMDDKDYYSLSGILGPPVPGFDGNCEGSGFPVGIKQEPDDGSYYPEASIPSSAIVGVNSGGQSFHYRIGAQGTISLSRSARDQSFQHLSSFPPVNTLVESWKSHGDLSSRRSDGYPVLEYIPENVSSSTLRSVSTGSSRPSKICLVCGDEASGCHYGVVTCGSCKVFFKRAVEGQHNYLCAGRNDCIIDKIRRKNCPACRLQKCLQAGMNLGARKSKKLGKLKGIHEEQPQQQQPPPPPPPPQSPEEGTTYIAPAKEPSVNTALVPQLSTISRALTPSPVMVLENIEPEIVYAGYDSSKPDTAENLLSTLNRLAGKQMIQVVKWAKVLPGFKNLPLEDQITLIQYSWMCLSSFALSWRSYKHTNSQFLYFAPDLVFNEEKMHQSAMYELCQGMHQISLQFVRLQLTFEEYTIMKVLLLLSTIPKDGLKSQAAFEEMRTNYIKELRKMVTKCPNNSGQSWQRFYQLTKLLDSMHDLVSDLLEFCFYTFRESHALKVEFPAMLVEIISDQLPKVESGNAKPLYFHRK
# Description: Inhibition of human Mineralocorticoid receptor
# Estrogen receptor beta, sequence (Q92731 whole entry): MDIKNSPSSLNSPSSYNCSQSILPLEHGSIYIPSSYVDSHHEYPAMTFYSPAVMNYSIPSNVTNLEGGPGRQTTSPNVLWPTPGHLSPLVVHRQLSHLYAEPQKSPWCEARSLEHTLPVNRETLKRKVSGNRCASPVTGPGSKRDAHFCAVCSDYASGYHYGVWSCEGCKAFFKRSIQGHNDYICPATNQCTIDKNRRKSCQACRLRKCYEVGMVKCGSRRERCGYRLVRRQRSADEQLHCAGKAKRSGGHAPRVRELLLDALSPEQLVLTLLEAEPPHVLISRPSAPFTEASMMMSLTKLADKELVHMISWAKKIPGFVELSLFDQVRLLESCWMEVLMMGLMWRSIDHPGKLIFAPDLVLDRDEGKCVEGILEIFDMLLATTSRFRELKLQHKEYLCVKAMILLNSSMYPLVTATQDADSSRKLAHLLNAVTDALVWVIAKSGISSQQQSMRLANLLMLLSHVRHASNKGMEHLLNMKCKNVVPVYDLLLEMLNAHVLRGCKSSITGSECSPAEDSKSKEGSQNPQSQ
Ki [1],Ki (Glucocorticoid receptor),Ki (Estrogen receptor beta),Ki (Estrogen receptor),Ki [2],SMILES
670 nM,0.27 nM,110 nM,12 nM,440 nM,C#C[C@]1(O)CC[C@H]2[C@@H]3CCC4=CC(=O)CCC4=C3[C@@H](c3ccc(N(C)CCOC4CC[C@@]5(C)[C@@H](C4)C[C@@H](O)[C@@H]4[C@@H]5C[C@H](O)[C@]5(C)[C@@H]([C@H](C)CCC(=O)O)CC[C@@H]45)cc3)C[C@@]21C (stereo in doubt; form 2)
> 1250 nM,0.42 nM,,,510 nM,C#C[C@]1(O)CC[C@H]2[C@@H]3CCC4=CC(=O)CCC4=C3[C@@H](c3ccc(N(C)CCOC4CC[C@@]5(C)[C@@H](C4)C[C@@H](O)[C@@H]4[C@@H]5C[C@H](O)[C@]5(C)[C@@H]([C@H](C)CCC(=O)NCC(=O)O)CC[C@@H]45)cc3)C[C@@]21C (stereo partly specified)
> 1250 nM,0.39 nM,> 750 nM,> 200 nM,> 1000 nM,C#C[C@]1(O)CC[C@H]2[C@@H]3CCC4=CC(=O)CCC4=C3[C@@H](c3ccc(N(C)CCNC(=O)OC4CC[C@@]5(C)[C@@H](C4)C[C@@H](O)[C@@H]4[C@@H]5C[C@H](O)[C@]5(C)[C@@H]([C@H](C)CCC(=O)O)CC[C@@H]45)cc3)C[C@@]21C (stereo partly specified)
> 1250 nM,0.67 nM,89 nM,11 nM,> 1000 nM,C#C[C@]1(O)CC[C@H]2[C@@H]3CCC4=CC(=O)CCC4=C3[C@@H](c3ccc(N(C)CCOC4CC[C@@]5(C)[C@@H](C4)C[C@@H](O)[C@@H]4[C@@H]5C[C@H](O)[C@]5(C)[C@@H]([C@H](C)CCC(=O)O)CC[C@@H]45)cc3)C[C@@]21C (stereo in doubt; form 1)
> 1250 nM,0.22 nM,13 nM,8.8 nM,80 nM,C#C[C@]1(O)CC[C@H]2[C@@H]3CCC4=CC(=O)CCC4=C3[C@@H](c3ccc(N(C)CCCOC4CC[C@@]5(C)[C@@H](C4)C[C@@H](O)[C@@H]4[C@@H]5C[C@H](O)[C@]5(C)[C@@H]([C@H](C)CCC(=O)O)CC[C@@H]45)cc3)C[C@@]21C (stereo partly specified)
> 1250 nM,1.1 nM,> 750 nM,94 nM,> 1000 nM,C#C[C@]1(O)CC[C@H]2[C@@H]3CCC4=CC(=O)CCC4=C3[C@@H](c3ccc(N(C)C(=O)CNC(=O)O[C@@H]4C[C@@H]5CC(O)CC[C@]5(C)[C@H]5C[C@H](O)[C@]6(C)[C@@H]([C@H](C)CCC(=O)O)CC[C@H]6[C@H]45)cc3)C[C@@]21C (stereo partly specified)
1100 nM,2.1 nM,160 nM,11 nM,310 nM,C#C[C@]1(O)CC[C@H]2[C@@H]3CCC4=CC(=O)CCC4=C3[C@@H](c3ccc(N(C)C(=O)CNC(=O)OC4CC[C@@]5(C)[C@@H](C4)C[C@@H](O)[C@@H]4[C@@H]5C[C@H](O)[C@]5(C)[C@@H]([C@H](C)CCC(=O)O)CC[C@@H]45)cc3)C[C@@]21C (stereo partly specified)

# The next lines start with the molecule.
SMILES,Ki [1],Ki (Glucocorticoid receptor),Ki (Estrogen receptor beta),Ki (Estrogen receptor),Ki [2]
C#C[C@]1(O)CC[C@H]2[C@@H]3CCC4=CC(=O)CCC4=C3[C@@H](c3ccc(N(C)CCOC4CC[C@@]5(C)[C@@H](C4)C[C@@H](O)[C@@H]4[C@@H]5C[C@H](O)[C@]5(C)[C@@H]([C@H](C)CCC(=O)NCCS(=O)(=O)O)CC[C@@H]45)cc3)C[C@@]21C (stereo partly specified),> 1250 nM,0.27 nM,30 nM,10 nM,140 nM
C#C[C@]1(O)CC[C@H]2[C@@H]3CCC4=CC(=O)CCC4=C3[C@@H](c3ccc(N(C)CCC[C@H]4[C@H](O)CC[C@@]5(C)[C@@H]4C[C@@H](O)[C@@H]4[C@@H]5C[C@H](O)[C@]5(C)[C@@H]([C@H](C)CCC(=O)O)CC[C@@H]45)cc3)C[C@@]21C,,0.8 nM,48 nM,46 nM,> 1000 nM
C#C[C@]1(O)CC[C@H]2[C@@H]3CCC4=CC(=O)CCC4=C3[C@@H](c3ccc(N(C)CCCC(=O)N(C)C4CC[C@@]5(C)[C@@H](C4)C[C@@H](O)[C@@H]4[C@@H]5C[C@H](O)[C@]5(C)[C@@H]([C@H](C)CCC(=O)O)CC[C@@H]45)cc3)C[C@@]21C (stereo partly specified),> 1250 nM,0.27 nM,13 nM,6.2 nM,190 nM
C#C[C@]1(O)CC[C@H]2[C@@H]3CCC4=CC(=O)CCC4=C3[C@@H](c3ccc(N(C)CCOCCO[C@H]4CC[C@@]5(C)[C@@H](C4)C[C@@H](O)[C@@H]4[C@@H]5C[C@H](O)[C@]5(C)[C@@H]([C@H](C)CCC(=O)O)CC[C@@H]45)cc3)C[C@@]21C,> 1250 nM,0.17 nM,51 nM,14 nM,150 nM
C#C[C@]1(O)CC[C@H]2[C@@H]3CCC4=CC(=O)CCC4=C3[C@@H](c3ccc(N(C)CCNC(=O)N(C)C4CC[C@@]5(C)[C@@H](C4)C[C@@H](O)[C@@H]4[C@@H]5C[C@H](O)[C@]5(C)[C@@H]([C@H](C)CCC(=O)O)CC[C@@H]45)cc3)C[C@@]21C (stereo partly specified),> 1250 nM,0.3 nM,190 nM,140 nM,850 nM
C#C[C@]1(O)CC[C@H]2[C@@H]3CCC4=CC(=O)CCC4=C3[C@@H](c3ccc(N(C)C(C)=O)cc3)C[C@@]21C,790 nM,0.4 nM,570 nM,34 nM,> 1000 nM
C#C[C@]1(O)CC[C@H]2[C@@H]3CCC4=CC(=O)CCC4=C3[C@@H](c3ccc(N(C)CCCS(=O)(=O)N(C)C4CC[C@@]5(C)[C@@H](C4)C[C@@H](O)[C@@H]4[C@@H]5C[C@H](O)[C@]5(C)[C@@H]([C@H](C)CCC(=O)O)CC[C@@H]45)cc3)C[C@@]21C (stereo partly specified),,0.42 nM,39 nM,19 nM,300 nM
